Experimental data reported in patent EP0392976A1, “Monoclonal antibodies to tetracyclic compounds, processes for their production, and applications” (CIBA-GEIGY AG, priority 1989, dated 1990).
Structures can show the parent of a compound that is named as a salt. Where two headings read alike, the source gives them in different places.

Legend:
Assay in all cases: inhibition enzyme immunoassay: inhibition of MAb binding to surface bound R-(-)-oxaprotiline-mucin conjugate
Parameters in all cases: species or system mouse
MAb 1219S78.6 = conditions: for IC50: MAb 1219S78.6, read-out: IC₅₀
Experimental: (§1) The affinities of the monoclonal antibodies of the invention to R-(-)-oxaprotiline can for example be determined in an inhibition enzyme immunoassay according to Friguet et al. (J. Immunol. Methods 77, 305, 1985) wherein the monoclonal antibody to be tested is preincubated with R-(-)-oxaprotiline and, in a second step, exposed to a solid phase coated with an adsorbable conjugate of R-(-)-oxaprotiline, e.g. a protein conjugate. The fraction of the monoclonal antibody not engaged in immunocomplexes binds to the solid phase and is quantified by a secondary antibody-enzyme conjugate directed against the monoclonal antibody. The affinities are expressed as IC₅₀ (inhibition concentration) values, i.e. the concentration of free antigen causing a 50 % inhibition of antibody binding to the solid phase antigen.
(§2) This can be done, for example, in an inhibition enzyme immunoassay wherein the monoclonal antibodies of the invention are preincubated with any of the soluble compounds listed above and the incubation mixture is then tested in the enzyme immunoassay described above.
(§3) The conjugate solution (0.66 mg/ml) is diluted 1000-fold in coating buffer pH 9.8 (477 mg sodium carbonate, 897 mg sodium hydrogen carbonate, 60 mg sodium azide, 300 ml distilled water) and incubated in the wells of a microtitre plate for 2 days at 4°C. The wells are washed three times with PBS containing Tween 20 (Sigma, 0.1 %). Residual adsorption sites on the plate are saturated by incubation with 100 µl of PBS/Tween 20 for 1 h. 100 µl of a solution to be tested for the presence of antibodies to R-(-)-oxaprotiline are incubated in the wells for 1 h at room temperature. After washing three times with PBS/Tween 20, an alkaline phosphatase conjugated anti-mouse IgG antiserum (Sigma) is added in a 1000-fold dilution for 1 h at 37°C. The microtitre plate is washed five times with PBS/Tween 20, and the enzyme-conjugated bound antiserum developed with an alkaline phosphatase substrate consisting of disodium p-nitrophenylphosphate (1 mg/ml; Sigma) in diethanolamine buffer pH 9.8. The substrate gives a yellow coloration which is measured with a colorimeter (Titertek Multiskan) at a wave length of 405 nm after 60 min.
(§4) The assay is carried out as described in the following.
(§5) The capacity of free R-(-)-oxaprotiline and of a number of compounds which are structurally analogous to R-(-)-oxaprotiline to inhibit the binding of the monoclonal antibodies of the invention to the antigen is determined in an inhibition enzyme immunoassay essentially as described in example 3.2. The MAbs are preincubated with free R-(-)-oxaprotiline and with various structural analogues, respectively, instead of with the test compounds of example 3.2.

MAb 1228P63.1 = conditions: for IC50: MAb 1228P63.1, read-out: IC₅₀
Experimental: as §1, §2, §3, §4, §5

MAb 1219S59.11 = conditions: for IC50: MAb 1219S59.11, read-out: IC₅₀
Experimental: as §1, §2, §3, §4, §5

MAb 1225S93.2 = conditions: for IC50: MAb 1225S93.2, read-out: IC₅₀
Experimental: as §1, §2, §3, §4, §5

MAb 1226S31.3 = system: MAb 1226S31.3
Experimental: as §1, §2, §3
The capacity of a number of therapeutic drugs some of which are used in combination with antidepressants and of biogenic amines to inhibit the binding of the monoclonal antibodies of the invention to the antigen is determined in a two-step inhibition enzyme immunoassay to establish the selectivity of the monoclonal antibodies to the tested compounds.
as §4, §5

Row | IC50 (MAb 1226S31.3; Mab 1226S31.3, therapeutic drugs and biogenic amines, 1 µM-150 pM, preincubated overnight, read-out: IC50) [nM] | Structure (SMILES) | IC50 relative to reference compound (fold) (MAb 1219S78.6) | IC50 (MAb 1219S78.6) [nM] | rel. affinity (MAb 1228P63.1) | IC50 (MAb 1228P63.1) [nM] | rel. affinity (MAb 1219S59.11) | IC50 (MAb 1219S59.11) [nM] | rel. affinity (MAb 1225S93.2) | IC50 (MAb 1225S93.2) [nM] | rel. affinity (MAb 1226S31.3) | IC50 (MAb 1226S31.3; MAb 1226S31.3, read-out: IC₅₀) [nM]
1 |  | CNC[C@H](CC12CCC(c3ccccc31)c1ccccc12)O[C@@H]1O[C@H](C(=O)O)[C@@H](O)[C@H](O)[C@H]1O [compound 5, S-(+)-1-(2-glucuronyl-3-methylamino-propyl)-dibenzo[b,e]bicyclo-[2.2.2]octadiene] | >3279 | > 1000 | 562.7 | 422 | >3448 | > 1000 | 429.7 | 159 | 52.7 | 353
2 |  | c1ccc2c(c1)C1CCC2(CC2CNCCO2)c2ccccc21 (centres unmarked) [compound 12, 2-(dibenzo[b,e]bicyclo-[2.2.2]octadienyl-1-methyl)-morpholine-hydrochloride] | ∼49.2 | ~15 | 3.1 | 2.35 | 174.1 | 50.5 | 6.4 | 2.35 | 0.3 | 2.1
3 | > 1000 | CNCC(O)c1ccc(O)c(O)c1 (centres unmarked) [Epinephrin, 4-[1-hydroxy-2-(methyl-amino)-ethyl]-1,2-benzene-diol] |  |  |  |  |  |  |  |  |  | 
4 |  | CNC[C@@H](O)CC12CCC(c3ccccc31)c1ccccc12 [compound 2, S-(+)-1-(2-hydroxy-3-methylamino-propyl)-dibenzo[b,e]bicyclo-[2.2.2]octadiene-hydrochloride] | 126.2 | 38.5 | 6.5 | 4.9 | 462.0 | 134 | 2.3 | 0.85 | ∼0.6 | ~4
5 |  | CNCC(O)CC12CCC(c3ccccc31)c1ccccc12 (racemic) [compound 3, 1-(2-hydroxy-3-methyl-amino-propyl)-dibenzo-[b,e]bicyclo[2.2.2]-octadiene-hydro-chloride] | 1.7 | 0.515 | 2.3 | 1.72 | 2.6 | 0.75 | 1.3 | 0.475 | 0.5 | 3.09
6 |  | CNCC(O)CC12CCC(c3ccccc31)c1ccc(C(F)(F)F)cc12 (centres unmarked) [compound 16] | >3279 | > 1000 | >1667 | > 1250 | >3448 | > 1000 | 251.4 | 93 | >149 | > 1000
7 |  | CNCC(CC12CCC(c3ccccc31)c1ccccc12)OC(C)=O (centres unmarked) [compound 11, 1-(2-acetoxy-3-methyl-amino-propyl)-dibenzo[b,e]bicyclo-[2.2.2]octadiene-hydrochloride-semi-hydrate] | 3.3 | 1 | 4.5 | 3.35 | 4.5 | 1.3 | 1.9 | 0.715 | 0.5 | 3.58
8 |  | NCC(O)CC12CCC(c3ccccc31)c1ccccc12 (centres unmarked) [compound 7, 1-(3-amino-2-hydroxy-propyl)-dibenzo[b,e]-bicyclo[2.2.2]-octadiene-hydro-chloride] | 249.2 | 76 | 2.2 | 1.65 | 368.9 | 107 | 2.0 | 0.75 | 0.4 | 2.38
